The structures appear in SMILES notation. Read-outs that look alike come from different tables or passages of the source.

Series [1] has as its system HEK cells expressing SMVT. Briefly: Effect of treatment on the creatine kinase system (intracellular creatine phosphate, ATP, creatine). The format is cell-based, human. The following applies: 100 μM, relative to buffer.
For series [2] the following is noted: cited from earlier work.
The conditions of series [3]: animals fed a diet containing up to 1%; cited from earlier work.
For series [4] the following is noted: cited from earlier work. The source holds these as a separate data set.
The next series relates to H9C2 cells. The format is cell-based, rat.
For series [5] the following is noted: healthy volunteers, oral creatine administration; cited from earlier work.
In another series the test system is HEK293 cells. The series is described as follows: Restoration of cellular energy homeostasis following sodium azide treatment. Type of series: cell-based, human. The following applies: azide 20 minutes, then compound or control media 20 minutes; FIG. 12.

Take `CN(CC(=O)O)C(=N)NP(=O)(O)O` [Creatine Phosphate, creatine phosphate]: in series [1] (After 1 Hour), the “Percent Increase in Intracellular Concentrations, ATP” value (“Percent Increase … ATP” for short) turned out to be 27%; the “Percent Increase in Intracellular Concentrations, Creatine” value is on record as −6%; the “Percent Increase in Intracellular Concentrations, Creatine Phosphate” value (“Percent Increase … Creatine Phosphate” for short) is reported as 15%. Also, in series [1] (After 3 Hours), the “Percent Increase … ATP” value worked out at 10%; the “Percent Increase in Intracellular Concentrations, Creatine” value is 0%; the “Percent Increase … Creatine Phosphate” value is listed as 5%. Also, in series [2] (patients with cardiac diseases, intravenous injection up to 8 gm/day), the Adverse side effects result was “without adverse side effects”.

Regarding `NC1=NCCN1CC(=O)O` [cyclocreatine], the Adverse effects entry in series [3] is “do not exhibit adverse effects”.

For the compound `CN(CC(=O)O)C(=N)N.O` [creatine monohydrate], the Adverse side effects entry in series [2] (athletes and body builders, 2-3 gm/day) was “without adverse side effects”.

As for `CN(CC(=O)O)C(=N)N` [Creatine, creatine], the “Duration of increases in tissue creatine phosphate levels” value in series [4] (following oral creatine supplementation) was > 14 days. For the same compound, in series [4] (supplementation typically takes weeks), the “Overall increase in creatine phosphate levels by creatine supplementation” value is < 50%. In addition, the “Protection against 3-NP toxicity (ATP luminescence)” value in the series with H9C2 cells was “not”. Besides, the “Increase of cerebral creatine phosphate” value in series [5] is given as “about 10%”. In series [1] (After 1 Hour), the “Percent Increase … ATP” value came out at 5%; the “Percent Increase in Intracellular Concentrations, Creatine” value is on record as 8%; the “Percent Increase … Creatine Phosphate” value is listed as 26%. In series [1] (After 3 Hours), the “Percent Increase … ATP” value is −5%; the “Percent Increase in Intracellular Concentrations, Creatine” value came out at 40%; the “Percent Increase … Creatine Phosphate” value was found to be 30%. Also, the “Reversal of azide-induced ATP depletion” value in the series on HEK293 cells was “not protective”.

The values are drawn from patent publication US20070281909A1, “Creatine phosphate prodrugs, compositions and uses thereof” (XenoPort, Inc., priority 2006, published 2007).
